Laboratory results taken from ChEMBL document CHEMBL4706479, “Novel Aryloxyethyl Derivatives of 1-(1-Benzoylpiperidin-4-yl)methanamine as the Extracellular Regulated Kinases 1/2 (ERK1/2) Phosphorylation-Preferring Serotonin 5-HT Receptor-Biased Agonists with Robust Antidepressant-like Activity” (J Med Chem, 2019).
Values after ≈ are worked out from the molar mass of the structure shown.

Columns and labels:
[1] = target: T1, Adrenergic receptor alpha-1 (Rattus norvegicus, UniProt P15823+P23944+P43140); assay: Displacement of [3H]-prazosin from alpha1 adrenergic receptor in rat cortex measured after 30 mins by microbeta2 scintillation counting method; type: tissue-based
T1 sequence (P15823 whole entry): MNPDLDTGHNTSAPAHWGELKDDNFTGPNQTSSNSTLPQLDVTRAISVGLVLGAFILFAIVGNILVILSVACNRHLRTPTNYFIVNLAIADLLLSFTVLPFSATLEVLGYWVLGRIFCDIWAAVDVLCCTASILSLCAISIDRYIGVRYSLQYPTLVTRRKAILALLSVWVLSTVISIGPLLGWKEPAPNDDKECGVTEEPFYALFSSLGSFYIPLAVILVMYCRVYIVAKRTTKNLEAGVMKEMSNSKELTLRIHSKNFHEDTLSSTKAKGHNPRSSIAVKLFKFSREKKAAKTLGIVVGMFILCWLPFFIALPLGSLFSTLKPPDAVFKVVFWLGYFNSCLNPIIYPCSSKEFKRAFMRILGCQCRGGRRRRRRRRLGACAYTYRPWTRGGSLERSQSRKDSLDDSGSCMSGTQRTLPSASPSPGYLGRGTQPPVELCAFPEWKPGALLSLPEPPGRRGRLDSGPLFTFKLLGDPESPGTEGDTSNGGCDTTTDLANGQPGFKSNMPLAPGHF
T1 sequence (P23944 whole entry): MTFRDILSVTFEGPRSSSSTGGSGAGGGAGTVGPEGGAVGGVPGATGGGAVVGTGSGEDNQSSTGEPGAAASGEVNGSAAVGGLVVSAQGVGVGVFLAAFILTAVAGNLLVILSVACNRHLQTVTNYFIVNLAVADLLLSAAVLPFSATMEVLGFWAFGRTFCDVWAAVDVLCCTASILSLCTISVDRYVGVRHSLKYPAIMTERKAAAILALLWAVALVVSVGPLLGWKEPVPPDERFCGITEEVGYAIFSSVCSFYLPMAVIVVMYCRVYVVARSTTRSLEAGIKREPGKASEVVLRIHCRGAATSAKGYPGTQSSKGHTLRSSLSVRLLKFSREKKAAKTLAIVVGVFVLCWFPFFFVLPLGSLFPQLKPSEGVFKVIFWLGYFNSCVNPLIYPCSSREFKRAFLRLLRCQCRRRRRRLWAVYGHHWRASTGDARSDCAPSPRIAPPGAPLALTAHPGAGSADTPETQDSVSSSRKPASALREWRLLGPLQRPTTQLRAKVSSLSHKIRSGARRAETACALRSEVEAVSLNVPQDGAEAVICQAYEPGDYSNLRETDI
T1 sequence (P43140 whole entry): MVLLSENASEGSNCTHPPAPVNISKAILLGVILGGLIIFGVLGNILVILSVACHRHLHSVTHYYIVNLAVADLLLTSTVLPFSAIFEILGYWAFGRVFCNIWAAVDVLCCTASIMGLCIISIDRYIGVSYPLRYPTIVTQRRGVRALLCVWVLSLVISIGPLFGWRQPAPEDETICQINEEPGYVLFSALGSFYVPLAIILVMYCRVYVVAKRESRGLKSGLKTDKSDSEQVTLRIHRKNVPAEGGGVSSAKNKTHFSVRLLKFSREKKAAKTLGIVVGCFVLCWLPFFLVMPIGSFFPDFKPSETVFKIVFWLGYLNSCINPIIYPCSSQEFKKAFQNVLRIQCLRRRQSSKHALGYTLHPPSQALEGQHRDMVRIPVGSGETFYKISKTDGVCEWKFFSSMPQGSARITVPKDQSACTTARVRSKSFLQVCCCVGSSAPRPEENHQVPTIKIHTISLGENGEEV

[2] = target: T2, 5-hydroxytryptamine receptor 1A (Homo sapiens) (UniProt P08908); assay: Biased agonist activity at human recombinant 5-HT1A receptor stably expressed in CHO-K1 cells assessed as increase in ERK1/2 phosphorylation levels incubated for 15 mins by Alphalisa assay relative to serotonin; type: cell-based
T2 sequence (whole entry): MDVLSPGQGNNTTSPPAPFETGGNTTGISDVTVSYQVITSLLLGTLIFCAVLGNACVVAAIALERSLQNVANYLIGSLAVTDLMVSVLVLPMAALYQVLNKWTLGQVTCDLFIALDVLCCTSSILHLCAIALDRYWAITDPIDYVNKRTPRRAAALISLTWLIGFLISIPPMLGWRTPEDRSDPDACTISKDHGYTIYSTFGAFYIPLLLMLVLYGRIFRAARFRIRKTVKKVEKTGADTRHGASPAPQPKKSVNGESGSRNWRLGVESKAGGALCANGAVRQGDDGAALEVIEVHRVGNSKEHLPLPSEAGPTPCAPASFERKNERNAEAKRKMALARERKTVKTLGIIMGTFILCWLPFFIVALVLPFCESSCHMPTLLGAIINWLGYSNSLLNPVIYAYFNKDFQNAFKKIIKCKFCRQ

[3] = target: T2, 5-hydroxytryptamine receptor 1A (Homo sapiens); assay: Biased agonist activity at human recombinant 5-HT1A receptor stably expressed in CHO-K1 cells assessed as inhibition of forskolin-induced cAMP accumulation after 40 mins by LANCE Ultra cAMP kit-based TR-FRET assay relative to serotonin; type: functional, cell-based
[4] = target: T2, 5-hydroxytryptamine receptor 1A (Homo sapiens); assay: Biased agonist activity at Gal4-VP16 transcription factor linked human 5-HT1A receptor expressed in human U2OS cells assessed as stimulation of beta-arrestin recruitment measured after 5 hrs by Tango assay relative to serotonin; type: cell-based
[5] = target: T2, 5-hydroxytryptamine receptor 1A (Homo sapiens); assay: Biased agonist activity at human recombinant 5-HT1A receptor stably expressed in CHO-K1 cells assessed as increase in calcium mobilization measured at 2 sec intervals for 180 secs by Fluo-4AM dye based fluorescence assay relative to serotonin; type: functional, cell-based; settings: time 180.0 sec
D(2) dopamine receptor = D(2) dopamine receptor (Homo sapiens, UniProt P14416); assay: Displacement of [3H]-methylspiperone from recombinant human D2 receptor stably expressed in CHO-K1 cell membranes measured after 60 mins by microbeta2 scintillation counting method; design: species or system Cell membrane
[6] = target: T3, 5-hydroxytryptamine receptor 1A (Homo sapiens, UniProt P08908); assay: Displacement of [3H]8-OH-DPAT from recombinant human 5HT1A receptor stably expressed in CHO-K1 cell membranes measured after 60 mins by microbeta2 scintillation counting method; design: species or system Cell membrane
T3 sequence (P08908 whole entry): T2 sequence (whole entry)

[7] = target: T2, 5-hydroxytryptamine receptor 1A (Homo sapiens); assay: Bias factor, ratio of biased agonist activity at human recombinant 5-HT1A receptor stably expressed in CHO-K1 cells assessed as increase in ERK1/2 phosphorylation levels to biased agonist activity at human recombinant 5-HT1A receptor stably expressed in CHO-K1 cells assessed as inhibition of forskolin-induced cAMP accumulation; type: functional, cell-based
[8] = target: T3, 5-hydroxytryptamine receptor 1A; assay: Biased agonist activity at human recombinant 5-HT1A receptor stably expressed in CHO-K1 cells assessed as increase in ERK1/2 phosphorylation levels incubated for 15 mins by Alphalisa assay; type: cell-based
[9] = target: T3, 5-hydroxytryptamine receptor 1A; assay: Biased agonist activity at human recombinant 5-HT1A receptor stably expressed in CHO-K1 cells assessed as inhibition of forskolin-induced cAMP accumulation after 40 mins by LANCE Ultra cAMP kit-based TR-FRET assay; type: functional, cell-based
[10] = target: T2, 5-hydroxytryptamine receptor 1A (Homo sapiens); assay: (§1) Bias factor, ratio of biased agonist activity at human recombinant 5-HT1A receptor stably expressed in CHO-K1 cells assessed as increase in ERK1/2 phosphorylation levels to biased agonist activity at Gal4-VP16 transcription factor linked human 5-HT1A receptor expressed in human U2OS cells assessed as stimulation of beta-arrestin recruitment; type: cell-based
[11] = target: T2, 5-hydroxytryptamine receptor 1A (Homo sapiens); assay: as §1, with “inhibition of forskolin-induced cAMP accumulation” for “increase in ERK1/2 phosphorylation levels”; type: functional, cell-based
[12] = Aqueous solubility of compound in pH 7.4 PBS buffer at 200 uM; type: physicochemical
Rattus norvegicus [13] = assay: Antidepressant-like activity in Wistar rat assessed as minimum effective dose causing reduction in immobility time administered intraperitoneally with compound 60 mins prior to testing and measured for 5 mins test period by Porsolt-forced swim test; type: functional; settings: ip, 1.083 h, time 65 min, read-out: MED
Rattus norvegicus [14] = assay: Antidepressant-like activity in Wistar rat assessed as reduction in immobility time at 15 mg/kg, ip administered 60 mins prior to testing and measured for 5 mins test period by Porsolt-forced swim test; type: functional; design: scale not given: the % may be the effect or the level left; settings: time 65 min, 1.083 h
[15] = Toxicity in Wistar rat assessed as minimum effective dose causing effect on flat body posture administered subcutaneously with compound and observed after 60 mins post treatment; settings: in vivo, sc, 1 h
Rattus norvegicus [16] = assay: Antidepressant-like activity in Wistar rat assessed as reduction in immobility time at 0.63 mg/kg, sc administered 60 mins prior to testing and measured for 5 mins test period by Porsolt-forced swim test; type: functional; design: scale not given: the % may be the effect or the level left; settings: time 65 min, 1.083 h
Rattus norvegicus [17] = assay: Antidepressant-like activity in Wistar rat assessed as minimum effective dose causing reduction in immobility time after sc administration with compound 60 mins prior to testing and measured for 5 mins test period by Porsolt-forced swim test; type: functional; settings: 1 h, read-out: MED
Rattus norvegicus [18] = assay: Antidepressant-like activity in Wistar rat assessed as reduction in immobility time at 10 mg/kg, ip administered 60 mins prior to testing and measured for 5 mins test period by Porsolt-forced swim test; type: functional; design: scale not given: the % may be the effect or the level left; settings: time 65 min, 1.083 h

Sequence of D(2) dopamine receptor (P14416 whole entry): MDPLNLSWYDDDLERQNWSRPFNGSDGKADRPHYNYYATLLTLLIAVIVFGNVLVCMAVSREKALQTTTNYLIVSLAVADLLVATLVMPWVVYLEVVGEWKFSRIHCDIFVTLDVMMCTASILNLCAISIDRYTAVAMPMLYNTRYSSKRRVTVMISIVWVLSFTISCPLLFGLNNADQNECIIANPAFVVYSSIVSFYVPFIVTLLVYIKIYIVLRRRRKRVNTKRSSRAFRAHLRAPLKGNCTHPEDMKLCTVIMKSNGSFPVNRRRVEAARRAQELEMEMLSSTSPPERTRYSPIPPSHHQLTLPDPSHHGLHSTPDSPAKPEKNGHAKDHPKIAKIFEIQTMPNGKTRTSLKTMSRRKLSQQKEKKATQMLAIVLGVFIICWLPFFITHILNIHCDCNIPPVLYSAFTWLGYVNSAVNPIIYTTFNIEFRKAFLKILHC

Q: Which results are given for `O=C(c1ccc(F)c(Cl)c1)N1CCC(F)(CNCCNc2ccccc2)CC1`?
A: pKi [1]: < 6; Emax ([2]; filed as agonist): 81%; Emax ([3]; filed as agonist): 79%; Emax ([4]; filed as agonist): 104%; Emax ([5]; filed as partial agonist): 65%

Q: For `Cc1cnc(OCCNCC2(F)CCN(C(=O)c3ccc(F)c(Cl)c3)CC2)nc1`, which pKi [1] is on record?
A: < 6

Q: And the Emax ([2]; filed as partial agonist)?
A: 72%

Q: And the Emax ([3]; filed as partial agonist)?
A: 41%

Q: What about the Emax ([4]; filed as partial agonist) of the same compound?
A: 75%

Q: Which results are given for `O=C(c1ccc(F)c(Cl)c1)N1CCC(F)(CNCCSc2ccccc2)CC1`?
A: Ki (D(2) dopamine receptor): > 1000 nM; Ki [6]: 0.562 nM; Ratio [7]: 1.27; Emax ([2]; filed as partial agonist): 85%; EC50 [8]: 170 nM; Emax ([3]; filed as partial agonist): 71%; EC50 [9]: 2450 nM; Emax ([4]; filed as partial agonist): 70%; Ratio [10]: 0.82; Ratio [11]: -0.45

Q: Which solubility at 200 µM [12] does the source give for `COCCc1ccc(OCC(O)CNC(C)C)cc1` (configuration not stated) [METOPROLOL] here?
A: 181 µM (≈ 48.3 µg/mL)

Q: For `CNC1(c2ccccc2Cl)CCCCC1=O` (configuration not stated) [KETAMINE], which minimal effective dose (Rattus norvegicus [13]) is on record?
A: 5 mg/kg

Q: And the Activity (Rattus norvegicus [14])?
A: 43%

Q: Which results are given for `O=C(c1ccc(F)c(Cl)c1)N1CCC(F)(CNCCOc2ccncc2)CC1`?
A: Ki (D(2) dopamine receptor): > 1000 nM; Ki [6]: 389 nM; pKi [1]: < 6

Q: For `O=C(c1ccc(F)c(Cl)c1)N1CCC(F)(CNCCNc2ccccn2)CC1`, which Emax ([3]; filed as agonist) is on record?
A: 86%

Q: And the Emax ([4]; filed as agonist)?
A: 99%

Q: And the Emax ([5]; filed as partial agonist)?
A: 52%

Q: What does the source list for `CCCN(CCC)C1CCc2cccc(O)c2C1` (racemic) [8-OH-DPAT]?
A: Emax ([2]; filed as agonist): 93%; Emax ([3]; filed as partial agonist): 63%; MED [15]: 0.63 mg/kg; Activity (Rattus norvegicus [16]): 90%; minimal effective dose (Rattus norvegicus [17]): 0.16 mg/kg

Q: Which pKi [1] does the source give for `O=C(c1ccc(F)c(Cl)c1)N1CCC(F)(CNCCOc2cnccn2)CC1` here?
A: < 6

Q: And the Emax ([2]; filed as agonist)?
A: 100%

Q: And the Emax ([3]; filed as agonist)?
A: 90%

Q: What about the Emax ([4]; filed as agonist) of the same compound?
A: 97%

Q: And the Emax ([5]; filed as agonist)?
A: 89%

Q: Which results are given for `O=C(c1ccc(Cl)c(Cl)c1)N1CCC(F)(CNCCOc2ccccc2)CC1`?
A: Ki (D(2) dopamine receptor): > 1000 nM; Ki [6]: 0.0148 nM

Q: With `CN(C)CCCN1c2ccccc2CCc2ccccc21` [IMIPRAMINE] as the compound, how does the minimal effective dose (Rattus norvegicus [13]) read?
A: 10 mg/kg

Q: And the Activity (Rattus norvegicus [18])?
A: 25%
